Results taken from ChEMBL document CHEMBL6083211, “Pyrazolines inhibiting the activity of the early growth response-1 DNA-binding domain” (Bioorg Med Chem Lett, 2024).
Calls of active or inactive are those of the source. The rule behind the calls is not given here.

Experiments:
Type in all cases: cell-based
[1] = target: Early growth response protein 1 (Homo sapiens) (UniProt P18146); assay: Inhibition of EGR-1 in TNF-alpha-stimulated human HaCaT cells assessed as decrease in IL-6 level at 20 to 40 uM pretreated for 30 mins followed by TNF-alpha stimulation measured after 6 hrs by RT-PCR analysis; details: dose 20-40 µM, time 390.0 min
Chain of Early growth response protein 1 (Homo sapiens) (P18146 whole entry, looked up): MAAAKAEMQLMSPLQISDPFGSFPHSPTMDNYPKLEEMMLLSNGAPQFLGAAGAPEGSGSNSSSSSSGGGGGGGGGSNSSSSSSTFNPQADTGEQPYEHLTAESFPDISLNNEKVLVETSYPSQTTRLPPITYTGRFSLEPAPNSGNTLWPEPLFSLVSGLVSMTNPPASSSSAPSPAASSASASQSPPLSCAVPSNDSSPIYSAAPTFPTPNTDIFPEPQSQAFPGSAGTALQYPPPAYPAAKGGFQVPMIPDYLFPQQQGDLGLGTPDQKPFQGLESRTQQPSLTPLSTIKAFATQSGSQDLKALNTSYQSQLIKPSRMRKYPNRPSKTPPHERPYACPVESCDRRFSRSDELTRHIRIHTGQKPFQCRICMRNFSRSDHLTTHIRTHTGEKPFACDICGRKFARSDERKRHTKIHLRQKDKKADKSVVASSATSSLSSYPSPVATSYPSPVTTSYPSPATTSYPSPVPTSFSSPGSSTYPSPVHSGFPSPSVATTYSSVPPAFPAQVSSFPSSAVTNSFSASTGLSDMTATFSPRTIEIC

[2] = target: Early growth response protein 1 (Homo sapiens) (UniProt P18146); assay: Inhibition of EGR-1 in TNF-alpha-stimulated human HaCaT cells assessed as decrease in IL-31 level at 20 to 40 uM pretreated for 30 mins followed by TNF-alpha stimulation measured after 6 hrs by RT-PCR analysis; details: dose 20-40 µM, time 390.0 min
[3] = target: Early growth response protein 1 (Homo sapiens) (UniProt P18146); assay: Inhibition of EGR-1 in TNF-alpha-stimulated human HaCaT cells assessed as decrease in IL-1beta level at 20 to 40 uM pretreated for 30 mins followed by TNF-alpha stimulation measured after 6 hrs by RT-PCR analysis; details: dose 20-40 µM, time 390.0 min
[4] = target: Early growth response protein 1 (Homo sapiens) (UniProt P18146); assay: Inhibition of EGR-1 DNA binding activity in TNF-alpha-stimulated human HaCaT cells assessed as suppression of DNA-protein complex formation treated for 1 hr by EMSA; details: dose 20-40 µM
[5] = target: Early growth response protein 1 (Homo sapiens) (UniProt P18146); assay: Inhibition of EGR-1 in TNF-alpha-stimulated human HaCaT cells assessed as decrease in TSLP level at 20 to 40 uM pretreated for 30 mins followed by TNF-alpha stimulation measured after 6 hrs by RT-PCR analysis; details: dose 20-40 µM, time 390.0 min

- inhibition [1]: Active
- inhibition [2]: Active
- inhibition [3]: Active
- inhibition [4]: Dose-dependent-effect
- inhibition [5]: Active
SMILES: COc1ccc(C2CC(c3c(O)ccc4ccccc34)=NN2)cc1 (stereo not given)
